The CC50 is the concentration that lowers cell viability or growth by half. What is called GI50 is the concentration that inhibits growth by half. A lower GI50 goes with more potent growth inhibition. By IC50 is commonly meant the concentration needed to halve the response being measured. Low readings indicate inhibition by little substance, high ones a need for much substance. Broadly, the IC90 is the point of the concentration-response curve where the effect stands at 90%. A higher IC90 goes with weaker potency.

This is an account of results in patent US20240109883A1, “Anti-Tumor Compositions and Methods” (priority 2020, published 2024).

What all share (assay type): cell-based
One series in a line: MRC5 TOX 7 d. Conditions: human.
The next series is described as follows: MRC5 4d Toxicity Assay. The note with it: human, confluent MRC5 cells, DAPI cell count, read-out: MRC5 4 d Tox: CC50. The protocol:
MRC5 cells were seeded in 96-well plates 1-2 days prior to treatment to ensure 100% confluence. On the day of treatment, cells were washed once and growth media was replaced. Compound (in DMSO) was added to cells using the following dilution scheme: 25, 12.5, 4.16, 1.4, 0.46, 0.15, 0.05 μM. Test concentrations were assayed in duplicate and included 0 μM (DMSO) control wells. Plates were incubated for 4 days. After treatment, cells were washed, fixed with 4% PFA and stained with DAPI. Plates were imaged using a Cytation 3 plate reader and nuclear DAPI staining was used to quantify cell survival. Dose-response plots were generated using CDD Vault to calculate CC50s.

The next series has as its system MCF7 cells. Briefly: MCF7 Cell Growth Inhibition Assay. Conditions: Homo sapiens, 24 h, 10% serum, DAPI cell count, 4-pt dilution from 10 μM. As for the experimental part: MCF7 cells were seeded in 96-well plates at 10% confluence 24 h prior to treatment. Compound was added to cells in full growth media containing 10% serum, using a 2-fold, 4-pt dilution scheme beginning from 10 μM (10, 5, 2.5, 1.25 μM). Plates were incubated for 24 h. After treatment, cells were washed, fixed with 4% PFA and stained with DAPI. Plates were imaged using a Cytation 3 plate reader and nuclear DAPI staining was used to quantify cell number. % Growth relative to vehicle-treated (DMSO) control wells was plotted using Excel (See FIGS. 1-8). IC50s were calculated by fitting the data points to the following standard equation:
Growth=1−[Cmpd]^n/(IC50^n+[Cmpd]^n)
where [Cmpd] is the molar concentration of compound, the IC50 is the concentration where half-maximal effect is seen, and n is the Hill coefficient.

The test system of series [1] is human cytomegalovirus (HCMV). Briefly: Antiviral activity against human cytomegalovirus (HCMV) in MRC5 cells. Conditions: for IC50 / IC90: Human betaherpesvirus 5, 168 h, MRC5 cells, MOI 0.01 IU per cell, 7 days post infection, mCherry positive cells; for Selectivity Index: SI50: MRC5 TOX 7 d CC50 relative to HCMV IC50. The protocol:
To assess their antiviral activity, some compounds were tested against human cytomegalovirus (HCMV) in vitro. Human MRC5 cells were grown to confluency (˜1.0×10^4 cells/well) in 96-well plate format in Dulbecco's Modified Eagle Medium (DMEM) supplemented with 10% fetal bovine serum (FBS) 2 mM L-glutamine, 0.1 mM non-essential amino acids, 10 mM HEPES, and 100 U/ml each of penicillin and streptomycin and infected with an HCMV variant expressing mCherry tagged pUL99 (the product of late viral UL99 gene) at a multiplicity of 0.01 infectious unit (IU) per cell. Assays were performed in triplicate. One hour later, medium of the cells was replaced with fresh medium containing the indicated compounds at 25, 12.5, 6.25, 3.13, 1.56, 0.78, 0.39 μM or the carrier in which the compounds are dissolved (DMSO). Final concentration of DMSO was 0.5% in each treatment. Virus yield in the culture was determined at 7 days post infection by quantification of fluorescent (mCherry positive) cells in each well by fluorescent microscopy. Results were plotted using CDD Vault (CDD Vault was developed by Collaborative Drug Discovery, Inc., 1633 Bayshore Hwy, Suite 342, Burlingame, CA 94010) in order to calculate IC50s and IC90s.

The test system of the next series is cMYC. Briefly: cMYC Degradation Assay (MDA-MB-231 cells, western blot). Conditions: 72 hours. As for the experimental part: MDA-MB-231 cells were seeded in 6-well format in complete growth media containing 10% serum and incubated for 48 h to ensure 100% confluence. Compound was added to cells at 5 μM and 10 μM final concentrations for a treatment period of 72 hours. Cells were harvested in ice-cold IP buffer and lysates were cleared by centrifugation. Total protein concentration was determined for each sample by Bradford assay. Proteins were separated by 10% SDS-PAGE and blotted onto PVDF membranes. Membranes were blocked with CosmoBio PDVF blocking reagent for 1 hour, followed by overnight incubation with cMYC primary antibody (Abcam) at 4 C. After several washes, the membanes were probed with secondary antibody for 1 hour at room temperature. Fluorescent signal was acquired using an Odyssey CLx (LI-COR) and quantified using ImageJ software.
(Immunoblotting shows a protein as a band on a membrane.)

With `CN(C)C(=O)Nc1ccc2c(c1)CN(c1ncc(Cc3ccc(-n4cccn4)cc3)s1)CC2` [Example 022], the cytotoxic concentration (CC50) at 7 d in “MRC5 TOX 7 d” was greater than 4.43 µM. Further, the CC50 at 4 days in the series “MRC5 4d Toxicity Assay” is greater than 25 µM. The molecule also had a 50% growth inhibitory concentration (GI50) in the series on MCF7 cells of 18.3 µM. Besides, in series [1], it took 0.536 µM to reach half-maximal inhibition (IC50), the IC90 was greater than 4.43 µM and the “Selectivity Index: SI50” value is greater than 8.3.
Molecule `NC(=O)Nc1ccc2c(c1)CN(c1ncc(Cc3ccc(N4CCOC4=O)cc3)s1)CC2` [Example 003] registered a CC50 at 7 d in “MRC5 TOX 7 d” greater than 6.77 µM. In “MRC5 4d Toxicity Assay”, the CC50 at 4 days was greater than 25 µM. Also, the 50% growth inhibitory concentration (GI50) in the series with MCF7 cells was determined as 17.5 µM. Also, in series [1], the half-maximal inhibitory concentration (IC50) turned out to be 5.77 µM, the 90% effect concentration (IC90) is greater than 6.77 µM and the “Selectivity Index: SI50” value is greater than 1.2.
As to `CNC(=O)N(C)c1ccc2c(c1)CN(c1ncc(Cc3ccc(-n4cccn4)cc3)s1)CC2` [Example 023], in the series “MRC5 TOX 7 d”, the CC50 at 7 d was greater than 13.6 µM. In addition, the CC50 at 4 days in the series “MRC5 4d Toxicity Assay” was greater than 25 µM. The molecule also came in with a 50% growth inhibitory concentration (GI50) in the series on MCF7 cells of 1.2 µM. Besides, in series [1], the IC50 was determined as 0.874 µM, the IC90 turned out to be 2.9 µM and the “Selectivity Index: SI50” value is given as greater than 15.5. In the series with cMYC, the “MDA-MB-231 cMYC: Fold Decrease in Low MW Band at 5 μM” value is reported as 0.04 fold, the “MDA-MB-231 cMYC: Fold Increase in High MW Band at 5 μM” value was 0.22 fold, the “MDA-MB-231 cMYC: Fold Decrease in Low MW Band at 10 μM” value was found to be 0.0 fold and the “MDA-MB-231 cMYC: Fold Increase in High MW Band at 10 μM” value came out at 0.2 fold. The “MDA-MB-231 cMYC qualitative degredation” value with cMYC is recorded as “total”.
As for `CNC(=O)Nc1ccc2c(c1)CN(c1ncc(Cc3ccc(-n4cccn4)cc3)s1)CC2` [Example 021], the CC50 at 7 d in the series “MRC5 TOX 7 d” was greater than 2.89 µM. The CC50 at 4 days in “MRC5 4d Toxicity Assay” was greater than 25 µM. For the same molecule, in the series on MCF7 cells, the 50% growth inhibitory concentration (GI50) stood at 18.3 µM. Moreover, in series [1], 1.17 µM corresponded to half-maximal inhibition (IC50), the IC90 was greater than 4.43 µM and the “Selectivity Index: SI50” value is greater than 2.5.
With `CN(C)C(=O)N(C)c1ccc2c(c1)CN(c1ncc(Cc3ccc(-n4cccn4)cc3)s1)CC2` [Example 024], in “MRC5 TOX 7 d”, the CC50 at 7 d was 21.4 µM. In addition, in “MRC5 4d Toxicity Assay”, the CC50 at 4 days was greater than 25 µM. In addition, in the series with MCF7 cells, growth was halved (GI50) at 1.8 µM. In series [1], the concentration for half-maximal inhibition (IC50) was 1.14 µM, it took 5.31 µM to reach the 90% level (IC90) and the “Selectivity Index: SI50” value is recorded as 18.7.
In turn, `CN(C(N)=O)c1ccc2c(c1)CN(c1ncc(Cc3ccc(-c4ncccn4)cc3)s1)CC2` [Example 011] returned a CC50 at 7 d in “MRC5 TOX 7 d” greater than 10.4 µM. In addition, in series [1], the half-maximal inhibitory concentration (IC50) came to 1.48 µM, the IC90 is greater than 10.4 µM and the “Selectivity Index: SI50” value was greater than 7.0. Besides, in the series with cMYC, the “MDA-MB-231 cMYC: Fold Decrease in Low MW Band at 5 μM” value is listed as 0.31 fold, the “MDA-MB-231 cMYC: Fold Increase in High MW Band at 5 μM” value came to 1.53 fold, the “MDA-MB-231 cMYC: Fold Decrease in Low MW Band at 10 μM” value worked out at 0.5 fold and the “MDA-MB-231 cMYC: Fold Increase in High MW Band at 10 μM” value is on record as 2.6 fold. In addition, in the series on cMYC, the “MDA-MB-231 cMYC qualitative degredation” value is recorded as “partial”.
In “MRC5 TOX 7 d”, `CN(C(N)=O)c1ccc2c(c1)CN(c1ncc(Cc3ccc(-n4cccn4)cc3)s1)CC2` [Example 020] yielded a 50% cytotoxic concentration (CC50) at 7 d of 3.63 µM. Also, in the series “MRC5 4d Toxicity Assay”, the CC50 at 4 days is greater than 25 µM. In the series on MCF7 cells, this molecule showed a GI50 of 2.3 µM. Besides, in series [1], the IC50 stood at 1.24 µM, the IC90 stood at 4.7 µM and the “Selectivity Index: SI50” value was 2.9.
As to `NC(=O)Nc1ccc2c(c1)CN(c1ncc(Cc3ccc(-c4ncccn4)cc3)s1)CC2` [Example 001], in the series “MRC5 TOX 7 d”, the CC50 at 7 d was greater than 10.4 µM. Moreover, the CC50 at 4 days in “MRC5 4d Toxicity Assay” was greater than 25 µM. Moreover, the GI50 in the series with MCF7 cells stood at 31.7 µM. Moreover, in series [1], the IC50 turned out to be 1.46 µM, the concentration for an effect of 90% (IC90) worked out at 8.72 µM and the “Selectivity Index: SI50” value is reported as greater than 7.1. Besides, in the series with cMYC, the “MDA-MB-231 cMYC: Fold Decrease in Low MW Band at 5 μM” value came to 0.98 fold, the “MDA-MB-231 cMYC: Fold Increase in High MW Band at 5 μM” value is on record as 0.84 fold, the “MDA-MB-231 cMYC: Fold Decrease in Low MW Band at 10 μM” value worked out at 1.2 fold and the “MDA-MB-231 cMYC: Fold Increase in High MW Band at 10 μM” value is listed as 1.7 fold. For the same molecule, the “MDA-MB-231 cMYC qualitative degredation” value in the series on cMYC is recorded as “no degradation”.
In “MRC5 TOX 7 d”, `CS(=O)(=O)c1ccc(Cc2cnc(N3CCc4ccc(NC(N)=O)cc4C3)s2)cc1` [Example 004] gave a CC50 at 7 d greater than 15.8 µM. For the same molecule, in the series “MRC5 4d Toxicity Assay”, the half-maximal cytotoxic concentration (CC50) at 4 days is greater than 25 µM. Further, the GI50 in the series on MCF7 cells was found to be 142 µM. In series [1], the IC50 is 5.59 µM, the IC90 was greater than 25 µM and the “Selectivity Index: SI50” value was greater than 2.8.
Take `NC(=O)Nc1ccc2c(c1)CN(c1ncc(Cc3ccc(-c4ccco4)cc3)s1)CC2` [Example 007]: the CC50 at 7 d in the series “MRC5 TOX 7 d” is greater than 2.89 µM. Further, in series [1], the IC50 stood at 1.19 µM, the IC90 was greater than 2.89 µM and the “Selectivity Index: SI50” value is reported as greater than 2.4. Further, in the series with cMYC, the “MDA-MB-231 cMYC: Fold Decrease in Low MW Band at 5 μM” value is reported as 0.63 fold, the “MDA-MB-231 cMYC: Fold Increase in High MW Band at 5 μM” value is recorded as 0.9 fold, the “MDA-MB-231 cMYC: Fold Decrease in Low MW Band at 10 μM” value is reported as 0.8 fold and the “MDA-MB-231 cMYC: Fold Increase in High MW Band at 10 μM” value is listed as 1.3 fold. Also, the “MDA-MB-231 cMYC qualitative degredation” value in the series with cMYC is recorded as “no degradation”.
Turning to `NC(=O)Nc1ccc2c(c1)CN(c1ncc(Cc3ccc(-n4cccn4)cc3)s1)CC2` [Example 019], the 50% cytotoxic concentration (CC50) at 7 d in “MRC5 TOX 7 d” was greater than 6.77 µM. Moreover, the 50% cytotoxic concentration (CC50) at 4 days in “MRC5 4d Toxicity Assay” is greater than 25 µM. In the series on MCF7 cells, this molecule yielded a concentration for 50% growth inhibition (GI50) of 11 µM. Further, in series [1], the IC50 came out at 0.791 µM, the IC90 was greater than 6.61 µM and the “Selectivity Index: SI50” value is greater than 8.6. In addition, in the series with cMYC, the “MDA-MB-231 cMYC: Fold Decrease in Low MW Band at 5 μM” value turned out to be 0.62 fold, the “MDA-MB-231 cMYC: Fold Increase in High MW Band at 5 μM” value was determined as 1.18 fold, the “MDA-MB-231 cMYC: Fold Decrease in Low MW Band at 10 μM” value stood at 0.9 fold and the “MDA-MB-231 cMYC: Fold Increase in High MW Band at 10 μM” value came out at 3.2 fold. The “MDA-MB-231 cMYC qualitative degredation” value with cMYC is given as “partial”.
